{
  "source": "paper PMC3905878",
  "about": "(2013)",
  "key": {"[1]": {"test_system": "Bsu A27C mutant (RNA, riboswitch, 5-aminoallyl-uridine at 13) AGAGGUUCUAGCUACACCCUCUAUAACAAACUAAGG", "assay": "smFRET, fraction of high-FRET state", "conditions": "100 mM KCl, 1 mM MgCl2; 50 mM Tris-HCl pH 7.5, room temperature; apparent"}, "[2]": {"test_system": "Bsu preQ1 riboswitch (wild-type, smFRET construct) (RNA, riboswitch, 5-aminoallyl-uridine at 13) AGAGGUUCUAGCUACACCCUCUAUAAAAAACUAAGG", "assay": "smFRET, fraction of high-FRET state", "conditions": "100 mM KCl, 1 mM MgCl2; 50 mM Tris-HCl pH 7.5, room temperature; apparent; high-FRET saturates near 50%"}, "[3]": {"test_system": "Tte preQ1 riboswitch (wild-type, smFRET construct) (RNA, riboswitch, 5-aminoallyl-uridine at 12) CUGGGUCGCAGUAACCCCAGUUAACAAAACAAGGG", "assay": "smFRET, fraction of high-FRET state", "conditions": "100 mM KCl, 1 mM MgCl2; 50 mM Tris-HCl pH 7.5, room temperature; apparent; high-FRET saturates near 50%"}, "[4]": {"test_system": "T. tengcongensis preQ1-I riboswitch 33-mer (RNA, riboswitch) CUGGGUCGCAGUAACCCCAGUUAACAAAACAAG", "assay": "ITC", "conditions": "100 mM NaCl, 6 mM MgCl2; 50 mM HEPES-NaOH pH 7.0, 25 °C; Table S3 prints 7.4 ± 2.3"}},
  "data": [
    {"smiles": "NCc1c[nH]c2nc(N)[nH]c(=O)c12", "values": [
      {"measurement": "K1/2", "setting": "[1]", "value": 11, "unit": "µM"},
      {"measurement": "K1/2", "setting": "[2]", "value": "134 ± 45", "unit": "nM"},
      {"measurement": "K1/2", "setting": "[3]", "value": "69 ± 22", "unit": "nM"},
      {"measurement": "KD", "setting": "[4]", "value": "7.3 ± 2.3", "unit": "nM"}
    ]}
  ]
}
